Here are results for 38 compounds from patent publication US12681007B2, “High throughput method for constructing and screening compound library and reaction device” (ZH[…] (SHENZHEN) CO., LTD., priority 2019, dated 2026).

The experiment deals with A549 (lung cancer) cells. Nature of the experiment: MTT screening of Erlotinib derivatives on A549 cells. To be noted: compound 10 μM, 24 hours, ratio of survival rate with derivative to survival rate with Erlotinib (lower = more active), unpurified in-situ reaction products. In kind it is cell-based. Here is the method: Screening 840 Erlotinib derivatives by MTT method, operating steps: • (1) A549 (lung cancer) cells were adhered overnight: the logarithmic growth phase cells were digested and then counted, and were laid on 96 well plates overnight with 5000 cells per well. • (2) Adding drug: the compound concentration was diluted to 10 μM with complete culture solution, and the supernatant was discarded, and a volume of 100 μL per well was administrated and treated for 24 hours. • (3) Adding MTT: 20 μL MTT (5 mg/ml) was added to each well and cultured for 4 hours. • (4) Measuring the absorbance value: discarding the supernatant, 150 μL DMSO was added to each well, shaken for 10 minutes to make the crystals fully dissolved. The absorbance at 570 nm was measured by microplate reader.
The relative survival rate was calculated as the ratio of the survival rate of cells treated with Erlotinib derivatives to the survival rate of cells treated with positive compounds (Erlotinib), where lower relative survival rate means the activity of the compounds are better.
On to `COCCOc1cc2ncnc(Nc3cccc(-c4cn(CCc5cccc(OC)c5)nn4)c3)c2cc1OCCOC` [Compound 20], for which the Relative survival rate amounted to 0.993.

On to `COCCOc1cc2ncnc(Nc3cccc(-c4cn([C@H]5CCc6nc(N)sc6C5)nn4)c3)c2cc1OCCOC` [Compound 22], for which the Relative survival rate was found to be 0.866. As for `COCCOc1cc2ncnc(Nc3cccc(-c4cn([C@@H](Cc5ccccc5)C(=O)OC(C)(C)C)nn4)c3)c2cc1OCCOC` [Compound 23], the Relative survival rate is given as 0.874. On to `COCCOc1cc2ncnc(Nc3cccc(-c4cn(C(C)(Cc5ccccc5)C(=O)OC)nn4)c3)c2cc1OCCOC` (centres unmarked) [Compound 24], for which the Relative survival rate turned out to be 0.557.

For `COCCOc1cc2ncnc(Nc3cccc(-c4cn(CC5=CCC(O)C=C5)nn4)c3)c2cc1OCCOC` (centres unmarked) [Compound 25], the Relative survival rate was found to be 0.885. With `CCOC(=O)[C@H](Cc1ccc(O)cc1)n1cc(-c2cccc(Nc3ncnc4cc(OCCOC)c(OCCOC)cc34)c2)nn1` [Compound 26], the Relative survival rate is 0.942. Then `COCCOc1cc2ncnc(Nc3cccc(-c4cn(C(C)(C)c5ccccc5)nn4)c3)c2cc1OCCOC` [Compound 27], with 0.862; and `COCCOc1cc2ncnc(Nc3cccc(-c4cn(-c5cc(C)nn5-c5ccccc5)nn4)c3)c2cc1OCCOC` [Compound 47], with 0.893.

As to `CCOc1ccccc1Cn1cc(-c2cccc(Nc3ncnc4cc(OCCOC)c(OCCOC)cc34)c2)nn1` [Compound 48], the Relative survival rate was determined as 0.971.

Consider `COCCOc1cc2ncnc(Nc3cccc(-c4cn(CCc5cccc([N+](=O)[O-])c5)nn4)c3)c2cc1OCCOC` [Compound 49], for which the Relative survival rate amounted to 0.913. With `COCCOc1cc2ncnc(Nc3cccc(-c4cn(Cc5cccc(C(=O)OC)c5)nn4)c3)c2cc1OCCOC` [Compound 50], the Relative survival rate is 0.951.

For `COCCOc1cc2ncnc(Nc3cccc(-c4cn([C@H](CO)C(=O)OCc5ccccc5)nn4)c3)c2cc1OCCOC` [Compound 51], the Relative survival rate turned out to be 0.989. The result for `COCCOc1cc2ncnc(Nc3cccc(-c4cn([C@H](C)c5nc6ccccc6[nH]5)nn4)c3)c2cc1OCCOC` [Compound 52] reads 0.993; that for `COCCOc1cc2ncnc(Nc3cccc(-c4cn(Cc5c[nH]cn5)nn4)c3)c2cc1OCCOC` [Compound 53], 0.928. For `COCCOc1cc2ncnc(Nc3cccc(-c4cn(Cc5cc(C)on5)nn4)c3)c2cc1OCCOC` [Compound 54], the Relative survival rate is recorded as 0.878. In the case of `COCCOc1cc2ncnc(Nc3cccc(-c4cn(Cc5ccccc5S(C)(=O)=O)nn4)c3)c2cc1OCCOC` [Compound 55], the Relative survival rate stood at 0.814. Take `COCCOc1cc2ncnc(Nc3cccc(-c4cn(C(C)(C)c5cc(F)cc(F)c5)nn4)c3)c2cc1OCCOC` [Compound 56]: the Relative survival rate was 0.978.

With `COCCOc1cc2ncnc(Nc3cccc(-c4cn(Cc5ccsc5)nn4)c3)c2cc1OCCOC` [Compound 57], the Relative survival rate was found to be 0.957. For `COCCOc1cc2ncnc(Nc3cccc(-c4cn(C[C@@H](O)c5ccccc5)nn4)c3)c2cc1OCCOC` [Compound 84], the Relative survival rate is 0.988.

As to `COCCOc1cc2ncnc(Nc3cccc(-c4cn(CCCOCc5ccccc5)nn4)c3)c2cc1OCCOC` [Compound 85], the Relative survival rate stood at 0.867.

In the case of `COCCOc1cc2ncnc(Nc3cccc(-c4cn(CCc5cccc(F)c5)nn4)c3)c2cc1OCCOC` [Compound 86], the Relative survival rate is 0.861. Consider `COCCOc1cc2ncnc(Nc3cccc(-c4cn(CCc5ccc(Cl)c(Cl)c5)nn4)c3)c2cc1OCCOC` [Compound 87], for which the Relative survival rate was 0.850. In the case of `COCCOc1cc2ncnc(Nc3cccc(-c4cn([C@H](Cc5ccc(O)cc5)C(=O)OC)nn4)c3)c2cc1OCCOC` [Compound 88], the Relative survival rate is 0.889. Turning to `COCCOc1cc2ncnc(Nc3cccc(-c4cn(C5CCCc6ccccc65)nn4)c3)c2cc1OCCOC` (centres unmarked) [Compound 89], the Relative survival rate amounted to 0.577. For `COCCOc1cc2ncnc(Nc3cccc(-c4cn(CCc5c[nH]c6cc(Cl)ccc56)nn4)c3)c2cc1OCCOC` [Compound 90], the Relative survival rate turned out to be 0.522. For `COCCOc1cc2ncnc(Nc3cccc(-c4cn(CC(O)c5cccc(Cl)c5)nn4)c3)c2cc1OCCOC` (centres unmarked) [Compound 92], the Relative survival rate is recorded as 0.854. As for `COCCOc1cc2ncnc(Nc3cccc(-c4cn(CCc5cccc(C(F)(F)F)c5)nn4)c3)c2cc1OCCOC` [Compound 93], the Relative survival rate was 0.621. On to `COCCOc1cc2ncnc(Nc3cccc(-c4cn([C@@H](Cc5ccccc5)C(=O)OC)nn4)c3)c2cc1OCCOC` [Compound 94], for which the Relative survival rate came to 0.885.

On to `COCCOc1cc2ncnc(Nc3cccc(-c4cn(CC(O)c5cccc(O)c5)nn4)c3)c2cc1OCCOC` (centres unmarked) [Compound 95], for which the Relative survival rate is 0.971. Consider `COCCOc1cc2ncnc(Nc3cccc(-c4cn([C@@H](C)C(=O)OCc5ccccc5)nn4)c3)c2cc1OCCOC` [Compound 96], for which the Relative survival rate worked out at 0.829. Consider `COCCOc1cc2ncnc(Nc3cccc(-c4cn(CCc5ccc6ccccc6c5)nn4)c3)c2cc1OCCOC` [Compound 97], for which the Relative survival rate was found to be 0.654.

For `COCCOc1cc2ncnc(Nc3cccc(-c4cn(Cc5ccc(Cl)nc5)nn4)c3)c2cc1OCCOC` [Compound 98], the Relative survival rate was 0.959.

As to `COCCOc1cc2ncnc(Nc3cccc(-c4cn(CCc5ccccn5)nn4)c3)c2cc1OCCOC` [Compound 99], the Relative survival rate stood at 0.888. As to `COCCOc1cc2ncnc(Nc3cccc(-c4cn(-c5ccccc5)nn4)c3)c2cc1OCCOC` [Compound 266], the Relative survival rate is recorded as 1.130. Then `COCCOc1cc2ncnc(Nc3cccc(-c4cn(-c5ccc(O)c(C(=O)O)c5)nn4)c3)c2cc1OCCOC` [Compound 267], with 1.129; and `COCCOc1cc2ncnc(Nc3cccc(-c4cn(-c5ccc(C)cc5C(=O)O)nn4)c3)c2cc1OCCOC` [Compound 268], with 1.311. Turning to `COCCOc1cc2ncnc(Nc3cccc(-c4cn(-c5ccc(Cc6ccccc6)cc5)nn4)c3)c2cc1OCCOC` [Compound 269], the Relative survival rate stood at 1.289. As to `COCCOc1cc2ncnc(Nc3cccc(-c4cn(-c5ccc(CC(=O)OC)cc5)nn4)c3)c2cc1OCCOC` [Compound 270], the Relative survival rate amounted to 1.200.
